These results are taken from patent US6379720B1, “Compositions containing hops extract and their use in water systems and process streams to control biological fouling” (Nalco Chemical Company, priority 2000, dated 2002).

The subject of this assay is Scenedesmus obliquus green algae. Kind of assay: Synergism test of hops extract/biocide combinations (Kull Synergism Index), chlorophyll OD 650 nm endpoint. The class given is cell-based. From the text:
The accepted method used to determined synergism is described by Kull, F. C., Eisman, P. C., Sylwestrowicz, H. D., and Mayer, R. L. in Applied Microbiology 9:538-541 (1961), and is well known in the art.
The equation for determining synergism is as follows:
QaQA+Qb/QB=Synergism Index (SI)
Where QA and QB are the concentrations of compounds A or B that produce an endpoint when acting alone, and where Qa and Qb are the concentrations of compounds A or B acting in the A/B combination required to produce an endpoint. The endpoint is defined by the particular test method, for example, an optical density.
To determine synergism, one evaluates the Synergism Index (SI).
The efficacy of the invention was tested in the following manner:
Scenedesmus obliquus green algae cells were prepared in synthetic cooling water (pH 8.2) to a concentration of 10^7 CFU/ml. 100 ul of the algae suspension were added to 200 ul aliquots of hops extract antimicrobial compositions in synthetic cooling water contained in 96 well microplates (FALCON® 3075). A wide range of hops extract/biocide combinations were tested. Microplates were covered with the provided lid and incubated at 25° C. for six days with 16 hour/8 hour light/dark cycles (cool-white fluorescent lamps, 1255 lux). Following incubation, supernatant was removed from each microplate well by vacuum aspiration. […] 200 ul of dimethylsulfoxide (DMSO) were added to each microplate well to dissolve the algae cells and extract chlorophyll. The optical density at 650 nm of each extraction was determined using a plate reader (Beckman Biomek®).
A wide range of ratios of the two active ingredients can be used, depending on several factors including the microorganisms to be controlled. In this example, data designated as QA and Qa in each case are for hops extract and data designated as QB and Qb are for the other antimicrobial (IZN, POLYQUAT, GLUT, TBTZ, DCOI, THPS, BNEF, DBNPA, and DTEA).

Setting [1] is: with hops extract 8 ppm, Endpoint OD650 = 0.300.
Where [2] appears, read: with hops extract 16 ppm, Endpoint OD650 = 0.300.

Values joined by “and” are separate entries in the source; they are usually repeats but may differ in a detail not shown here. Equal entries are not always repeated. Some results are limits rather than exact numbers.

As to `CCNc1nc(Cl)nc(NC(C)(C)C)n1` [TBTZ, 2-(tert-butylamino)-4-chloro-6(ethylamino)-s-triazine], the “QB (concentration of the antimicrobial that produces the endpoint when acting alone)” value (Endpoint OD650 = 0.250) came to 16 ppm.

`N#CC(Br)(Br)C(N)=O` [DBNPA, 2,2-dibromo-3-nitrilopropionamide]: the “QB (concentration of the antimicrobial that produces the endpoint when acting alone)” value (Endpoint OD650 = 0.200, (32) used for synergy calculations) was >16 (32) ppm. Besides, the “Qb (concentration of the antimicrobial in the combination required to produce the endpoint)” value is reported as 16 ppm (with hops extract 4 ppm, Endpoint OD650 = 0.200) and 16 ppm (with hops extract 16 ppm, Endpoint OD650 = 0.200).

`CCCCCCCCCCSCCN` [DTEA, 2-(decylthio)ethanamine]: the “QB (concentration of the antimicrobial that produces the endpoint when acting alone)” value (Endpoint OD650 = 0.300) was 16 ppm. The “Qb (concentration of the antimicrobial in the combination required to produce the endpoint)” value was 4 ppm and 8 ppm under setting [1]; 1 ppm and 2 ppm under setting [2].

Consider methylchloro/isothiazolone [IZN], for which, for the setting “Endpoint OD650 = 0.100, (32) used for synergy calculations”, the “QB (concentration of the antimicrobial that produces the endpoint when acting alone)” value is reported as >16 (32) ppm. Also, the “Qb (concentration of the antimicrobial in the combination required to produce the endpoint)” value is 16 ppm (with hops extract 16 ppm, Endpoint OD650 = 0.100); 16 ppm (with hops extract 32 ppm, Endpoint OD650 = 0.100); 8 ppm and 16 ppm (with hops extract 64 ppm, Endpoint OD650 = 0.100); 8 ppm and 16 ppm (with hops extract 128 ppm, Endpoint OD650 = 0.100); 8 ppm (with hops extract 256 ppm, Endpoint OD650 = 0.100).

Turning to `O=CCCCC=O` [GLUT, glutaraldehyde], the “QB (concentration of the antimicrobial that produces the endpoint when acting alone)” value (Endpoint OD650 = 0.250, (32) used for synergy calculations) is recorded as >16 (32) ppm. The “Qb (concentration of the antimicrobial in the combination required to produce the endpoint)” value (with hops extract 16 ppm, Endpoint OD650 = 0.250) was found to be 4 ppm.

As to `O=[N+]([O-])C(Br)=Cc1ccco1` [BNEF, 2-(2-bromo-2-nitroethenyl)furan], the “QB (concentration of the antimicrobial that produces the endpoint when acting alone)” value (Endpoint OD650 = 0.300, (32) used for synergy calculations) is >16 (32) ppm. Further, the “Qb (concentration of the antimicrobial in the combination required to produce the endpoint)” value reads like this: (with hops extract 4 ppm, Endpoint OD650 = 0.300) 16 ppm; under setting [1], 16 ppm; under setting [2], 1 ppm.

In the case of “tetrakishydroxymethyl phosphonium sulfate [THPS]”, the “QB (concentration of the antimicrobial that produces the endpoint when acting alone)” value (Endpoint OD650 = 0.250) is recorded as 16 ppm. The “Qb (concentration of the antimicrobial in the combination required to produce the endpoint)” value (with hops extract 4 ppm, Endpoint OD650 = 0.250) is listed as 4 ppm; the “Qb (concentration of the antimicrobial in the combination required to produce the endpoint)” value (with hops extract 8 ppm, Endpoint OD650 = 0.250) was 4 ppm and 8 ppm.

On to `CCCCCCCCn1sc(Cl)c(Cl)c1=O` [DCOI, 4,5-dichloro-2-n-octyl-4-isothiazolin-3-one], for which the “QB (concentration of the antimicrobial that produces the endpoint when acting alone)” value (Endpoint OD650 = 0.150, (32) used for synergy calculations) is >16 (32) ppm. Moreover, the “Qb (concentration of the antimicrobial in the combination required to produce the endpoint)” value by setting is: (with hops extract 4 ppm, Endpoint OD650 = 0.150) 16 ppm; (with hops extract 64 ppm, Endpoint OD650 = 0.150) 8 ppm and 16 ppm.
